Test results from patent US9682960B2 (priority 2013, dated 2017).
Where two headings read alike, the source gives them in different places.

Columns and labels:
[1] = system: Shionogi mouse mammary carcinoma cells; test: In vitro androgenic/antiandrogenic activity: proliferation of Shionogi cells with or without DHT; assay type: cell-based; conditions: for IC50: Mus musculus; for fold more potent than OH-flutamide in reversing DHT-stimulated Shionogi cell proliferation: versus hydroxyflutamide
Human Androgen Receptor = Human Androgen Receptor (Homo sapiens (Human), UniProt P10275); test: Androgen receptor assay: [3H]R1881 displacement, cytosol of HEK-293 cells transfected with hAR (hydroxylapatite assay); assay type: binding; conditions: for Human Androgen Receptor Binding RBA (%) R1881 = 100: relative binding affinity; for times more potent than OH-flutamide on the human AR (RBA ratio): versus hydroxyflutamide
Human Androgen Receptor, sequence (P10275 whole entry): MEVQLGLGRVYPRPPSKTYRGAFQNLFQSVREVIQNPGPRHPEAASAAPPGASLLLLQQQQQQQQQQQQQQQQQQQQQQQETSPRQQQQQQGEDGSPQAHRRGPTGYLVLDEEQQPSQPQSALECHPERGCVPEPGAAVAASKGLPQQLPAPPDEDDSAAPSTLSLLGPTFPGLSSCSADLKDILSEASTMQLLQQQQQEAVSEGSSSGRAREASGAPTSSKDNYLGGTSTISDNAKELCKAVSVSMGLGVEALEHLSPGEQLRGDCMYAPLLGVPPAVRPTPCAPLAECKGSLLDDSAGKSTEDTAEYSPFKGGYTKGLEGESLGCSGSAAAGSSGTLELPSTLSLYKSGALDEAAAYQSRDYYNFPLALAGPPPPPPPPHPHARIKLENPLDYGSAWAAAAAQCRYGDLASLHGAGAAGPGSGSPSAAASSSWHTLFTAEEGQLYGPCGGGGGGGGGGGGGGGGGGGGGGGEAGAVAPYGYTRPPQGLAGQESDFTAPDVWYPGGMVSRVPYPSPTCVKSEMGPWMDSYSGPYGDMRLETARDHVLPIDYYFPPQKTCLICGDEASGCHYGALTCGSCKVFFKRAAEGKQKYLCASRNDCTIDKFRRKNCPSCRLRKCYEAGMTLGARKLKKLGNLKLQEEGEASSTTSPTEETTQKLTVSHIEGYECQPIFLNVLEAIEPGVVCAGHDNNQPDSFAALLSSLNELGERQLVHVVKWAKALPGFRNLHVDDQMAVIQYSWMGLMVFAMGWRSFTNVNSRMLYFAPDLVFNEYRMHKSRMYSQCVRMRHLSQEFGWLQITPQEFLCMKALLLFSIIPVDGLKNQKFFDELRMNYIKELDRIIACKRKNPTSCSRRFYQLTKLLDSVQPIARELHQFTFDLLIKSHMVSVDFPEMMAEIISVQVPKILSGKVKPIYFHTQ

[2] = system: castrated (CX) immature male rats; test: Systemic androgenic (agonistic) activity in orchidectomized (CX) immature male rats; assay type: in vivo, rat; conditions: 0.1 mg/rat/po, 7 days; for CX Agonistic activity % Stimulation Bulbo: bulbocavernosus muscles weight; for CX Agonistic activity % Stimulation SV: seminal vesicles weight; for CX Agonistic activity % Stimulation Prostate: ventral prostate weight
Method: Immature male rats (Crl:CD(SD)Br) 22 to 24-day old weighting 60-80 g at start of treatment were obtained from Charles-River, Inc. (St-Constant, Quebec, Canada) and housed up to 5 per cage in plastic bins in a temperature (23±1° C.)- and light (12 h light/day, lights on at 7 h15)-controlled environment. The rats were fed rodent chow and tap water ad libitum. […] The day following their arrival, the designed animals were orchidectomized (CX) under Isoflurane anesthesia (Study Day 1) via the scrotal route and were then randomly assigned to groups of 3 to 5 animals. At the time of orchidectomy, one silastic implant of dihydrotestosterone (DHT; 1 cm length of pure DHT in silastic tubing having inner and outer diameter of 0.078 and 0.125 inches, respectively), was inserted subcutaneously in the dorsal area of animals assigned to the evaluation of antiandrogenic activity. In the case of intact animal experiments, the orchidectomy and the silastic implant installation are omitted.
Tested compounds were administered orally once daily for 7 days from Study Day 2 to Study Day 8 at doses generally ranging from 0.1 and 0.5 mg/animal. Compounds were either solubilized in dimethylsulfoxide (DMSO, 10% final concentration) and were administered as a solution/suspension in 0.9% NaCl-1% gelatin or were administered as suspensions in 0.4% aqueous methylcellulose. Animals of the control groups received the corresponding vehicle alone during the 7-day period. Some animals were treated with the antiandrogen Flutamide or Casodex as reference. The animals under isoflurane anesthesia were killed by cervical dislocation on day 9 of the study, approximately 24 h after the last dosing. The ventral prostate, seminal vesicles and bulbocavernosus muscles were rapidly dissected and weighed.
For calculations with intact animals, control DHT is replaced by control intact and the % stimulation is subtracted by 100%. W is the weight of the prostate, seminal vesicles or bulbocavernosus muscles. Discussion

[3] = read-out: Shionogi Antiandrogenic Activity IC50, DHT (0.3 nM)-stimulated cell number

Row | SMILES | IC50 [1, 3] | Human Androgen Receptor Binding RBA (%) R1881 = 100 (Human Androgen Receptor; […]) | Human Androgen Receptor Binding RBA (%) R1881 = 100 (Human Androgen Receptor; transfected cells) | further results
1 | Cc1c(N2C(=O)C(C)(C)N(CCCOc3ccc(-c4cccnc4)cc3)C2=S)ccc(C#N)c1Cl [EM-8656] | > 100 nM | 477 ± 16 (n = 2) % | – | CX Agonistic activity % Stimulation Bulbo [2]: 73%; CX Agonistic activity % Stimulation SV [2]: 24%; CX Agonistic activity % Stimulation Prostate [2]: 38%
2 | Cc1c(N2C(=O)C(C)(C)N(CCCOc3ccc(-c4ccncc4)cc3)C2=S)ccc(C#N)c1Cl [EM-8664] | > 100 nM | 664% | – | CX Agonistic activity % Stimulation Bulbo [2]: 177%; CX Agonistic activity % Stimulation SV [2]: 66%; CX Agonistic activity % Stimulation Prostate [2]: 62%
3 | Cc1c(N2C(=O)C(C)(C)N(CCCOc3ccc(-c4cncnc4)cc3)C2=S)ccc(C#N)c1Cl [EM-8685] | > 100 nM | 144% | – | CX Agonistic activity % Stimulation Bulbo [2]: 136%; CX Agonistic activity % Stimulation SV [2]: 20%; CX Agonistic activity % Stimulation Prostate [2]: 41%
4 | Cc1c(N2C(=O)C(C)(C)N(CCCOc3ccc(-c4cccnc4)cc3F)C2=S)ccc(C#N)c1Cl [EM-8714] | 97 nM | 355% | – | CX Agonistic activity % Stimulation Bulbo [2]: 78%; CX Agonistic activity % Stimulation SV [2]: 18%; CX Agonistic activity % Stimulation Prostate [2]: 45%
5 | CC1(C)C(=O)N(c2ccc(C#N)c(C(F)(F)F)c2)C(=O)N1CCCOc1ccc(-c2ccncc2)c(F)c1 [EM-9066] | 11 ± 4 nM | – | 10.3 ± 1.3 (n = 2) % | –
6 | CC1(C)C(=O)N(c2ccc(C#N)c(C(F)(F)F)c2)C(=O)N1CCCOc1ccc(-c2cc[n+]([O-])cc2)c(F)c1 [EM-9067] | 12 nM | – | 2.4% | –
7 | CC1(C)C(=O)N(c2ccc(C#N)c(C(F)(F)F)c2)C(=S)N1CCCCOc1ccc(-c2cccnc2)cc1 [EM-9070] | 14.9 nM | – | 191% | –
8 | CC1(C)C(=O)N(c2ccc(C#N)c(C(F)(F)F)c2)C(=O)N1CCCOc1ccc(-c2ccncc2)c(C(F)(F)F)c1 [EM-9089] | 49 nM | – | 2.0% | –
9 | CC1(C)C(=O)N(c2ccc(C#N)c(C(F)(F)F)c2)C(=S)N1CCCOc1ccc(-c2ccncc2)nc1 [EM-9092] | 11.2 nM | – | 72% | –
10 | CC1(C)C(=O)N(c2ccc(C#N)c(C(F)(F)F)c2)C(=O)N1CCCOc1ccc(-c2ccncc2)nc1 [EM-9111] | 19 nM | 1.0 ± 0.0 (n = 2) % | – | –
11 | CC1(C)C(=O)N(c2ccc(C#N)c(C(F)(F)F)c2)C(=O)N1CCCOc1ccc(-c2ccncc2)cn1 [EM-9114] | 19.2 ± 0.3 nM | 7.9 ± 4.1 (n = 3) % | – | –
12 | CC1(C)C(=O)N(c2ccc(C#N)c(Cl)c2)C(=O)N1CCCOc1ccc(-c2ccncc2)c(F)c1 [EM-9115] | 18 ± 4 nM | 12.5 ± 2.3 (n = 6) % | – | –
13 | CC1(C)C(=O)N(c2ccc(C#N)c(Cl)c2)C(=O)N1CCCOc1ccc(-c2cc[n+]([O-])cc2)c(F)c1 [EM-9117] | 31 ± 10 nM | 2.5 ± 0.5 (n = 5) % | – | –
14 | CC1(C)C(=O)N(c2ccc(C#N)c(Cl)c2)C(=O)N1CCCOc1ccc(-c2cc[n+]([O-])cc2)cc1 [EM-9118] | 15 ± 3 nM | 2.2 ± 0.4 (n = 6) % | – | –
15 | CC1(C)C(=O)N(c2ccc(C#N)c(Cl)c2)C(=S)N1CCCOc1ccc(-c2cc[n+]([O-])cc2)c(F)c1 [EM-9119] | 12.1 ± 0.5 nM | 122% | – | –
16 | CC1(C)C(=O)N(c2ccc(C#N)c(Cl)c2)C(=S)N1CCCOc1ccc(-c2cc[n+]([O-])cc2)cc1 [EM-9120] | 9.2 ± 0.8 nM | 106% | – | –
17 | CC1(C)C(=O)N(c2ccc(C#N)c(C(F)(F)F)c2)CC(=O)N1CCCOc1ccc(-c2ccncc2)cc1 [EM-9126] | 173 nM | <0.1% | – | –
18 | CC1(C)C(=O)N(c2ccc(C#N)c(F)c2)C(=O)N1CCCOc1ccc(-c2cc[n+]([O-])cc2)cc1 [EM-9176] | > 100 nM | – | ~0.1% | –

Row | SMILES | IC50 [1, 3] | Human Androgen Receptor Binding RBA (%) R1881 = 100 (Human Androgen Receptor; […]) | Human Androgen Receptor Binding RBA (%) R1881 = 100 (Human Androgen Receptor; transfected cells) | further results
19 | CC1(C)C(=O)N(c2ccc(C#N)c(C(F)(F)F)c2)C(=O)N1CCOc1ccc(-c2cc[n+]([O-])cc2)cc1 [EM-9180] | 24 nM | – | 1.7% | –
20 | CC1(C)C(=O)N(c2ccc(C#N)c(Cl)c2)C(=O)N1CCCOc1ccc(-c2ccncc2)cc1F [EM-9198] | 5.3 nM | 22% | – | fold more potent than OH-flutamide in reversing DHT-stimulated Shionogi cell proliferation [1]: 6.4 fold; times more potent than OH-flutamide on the human AR (RBA ratio) (Human Androgen Receptor): 105 times
21 | CC1(C)C(=O)N(c2ccc(C#N)c(C(F)(F)F)c2)C(=O)N1Cc1ccc(-c2ccncc2)cc1 [EM-9199] | 27 nM | – | 2.3% | –
22 | CC1(C)C(=O)N(c2ccc(C#N)c(C(F)(F)F)c2)C(=O)N1Cc1ccc(-c2cccnc2)cc1 [EM-9200] | 66 nM | – | 2.5% | –
23 | N#Cc1ccc(N2C(=O)N(CCCOc3ccc(-c4ccncc4)c(F)c3)C3(CCCC3)C2=O)cc1Cl [EM-9201] | 9.7 nM | 70.8% | – | –
24 | Cc1c(N2C(=O)N(CCCOc3ccc(-c4ccncc4)c(F)c3)C(C)(C)C2=O)ccc(C#N)c1F [EM-9205] | 14.8 nM | – | 17.9% | fold more potent than OH-flutamide in reversing DHT-stimulated Shionogi cell proliferation [1]: 2.3 fold; times more potent than OH-flutamide on the human AR (RBA ratio) (Human Androgen Receptor): 85 times
25 | Cc1cc(OCCCN2C(=O)N(c3ccc(C#N)c(Cl)c3)C(=O)C2(C)C)ccc1-c1cc[n+]([O-])cc1 [EM-9221] | 10.6 nM | 2.7% | – | –
26 | CC1(C)C(=O)N(c2ccc(C#N)c(Cl)c2)C(=O)N1CCCOc1ccc(-c2cc[n+]([O-])cc2)cc1F [EM-9226] | 23 nM | 2.4% | – | –
27 | CC1(C)C(=O)N(c2ccc(C#N)c(C(F)(F)F)c2)C(=O)N1Cc1ccc(-c2ccncc2)c(F)c1 [EM-9227] | 16.4 nM | 4.9% | – | –
28 | CC1(C)C(=O)N(c2ccc(C#N)c(C(F)(F)F)c2)C(=O)N1Cc1ccc(-c2cc[n+]([O-])cc2)c(F)c1 [EM-9228] | 53 nM | 0.4% | – | –
29 | COc1cc(-c2ccncc2)ccc1OCCCN1C(=O)N(c2ccc(C#N)c(Cl)c2)C(=O)C1(C)C [EM-9261] | 27 nM | 2.5% | – | –
30 | CC1(C)C(=O)N(c2ccc(C#N)c(Cl)c2)C(=O)N1CCCOc1ccc(-c2ccncc2F)cc1 [EM-9267] | 16 nM | – | 5.5% | –
31 | CC1(C)C(=O)N(c2ccc(C#N)c(C(F)(F)F)c2)C(=O)N1c1ccc(-c2ccncc2)cc1 [EM-9340] | – | – | 0.2% | IC50 ([1]; DHT (0.3 nM)-stimulated cell number, read-out: Shionogi Antiandrogenic Activity IC50): 126 nM
32 | Cc1c(N2C(=O)N(c3ccc(-c4cccnc4)cc3)C(C)(C)C2=O)ccc(C#N)c1C(F)(F)F [EM-9342] | 66 nM | – | 0.4% | –
33 | Cc1c(N2C(=O)N(Cc3ccc(-c4ccncc4)cc3)C(C)(C)C2=O)ccc(C#N)c1Cl [EM-9343] | 21 nM | 6.1% | – | –
34 | Cc1c(N2C(=O)N(c3ccc(-c4ccncc4)cc3)C(C)(C)C2=O)ccc(C#N)c1C(F)(F)F [EM-9344] | 51 nM | 0.8% | – | –
35 | Cc1c(N2C(=O)N(Cc3ccc(-c4cc[n+]([O-])cc4)cc3)C(C)(C)C2=O)ccc(C#N)c1Cl [EM-9345] | ~80 nM | – | 0.5% | –
